Data published in patent US20160095897A1 (priority 2013, published 2016).
Like-named read-outs stand apart in the source and are kept apart here.

Key:
[1] = test system: IAV A/PR/8/34; type: in vivo, mice; conditions: lethal dose
[2] = test system: IAV A/PR/8/34 (H1N1); type: in vivo; conditions: mice, IAV A/PR/8/34 (H1N1) 40 or 60% lethal doses, pepducin p4pal-10 10 μg

N-palmitoyl-SGRRYGHALR-NH2 (HELM PEPTIDE1{[CCCCCCCCCCCCCCCC(=O)[*:2]].S.G.R.R.Y.G.H.A.L.R.[am]}$$$$V2.0; SMILES CCCCCCCCCCCCCCCC(=O)N[C@@H](CO)C(=O)NCC(=O)N[C@@H](CCCNC(=N)N)C(=O)N[C@@H](CCCNC(=N)N)C(=O)N[C@@H](Cc1ccc(O)cc1)C(=O)NCC(=O)N[C@@H](Cc1c[nH]cn1)C(=O)N[C@@H](C)C(=O)N[C@@H](CC(C)C)C(=O)N[C@@H](CCCNC(=N)N)C(N)=O) [pepducin p4pal-10]
IL1-β level in BAL ([1]; day 3 post-inoculation, ELISA): not at day 3 | IL-6 level in BAL ([1]; day 3 post-inoculation, ELISA): not at day 3 | MIP-2 level in BAL ([1]; day 3 post-inoculation, ELISA): not at day 3 | level of total proteins in BAL ([1]; day 6 post-inoculation): significantly reduced | IFN-γ level in BAL ([1]; day 6 post-inoculation, ELISA): significantly reduced | IL1-β level in BAL ([1]; day 6 post-inoculation, ELISA): significantly reduced | IL-6 level in BAL ([1]; day 6 post-inoculation, ELISA): significantly reduced | MIP-2 level in BAL ([1]; day 6 post-inoculation, ELISA): significantly reduced | KC level in BAL ([1]; treated vs not treated): similar | RANTES level in BAL ([1]; treated vs not treated): similar | death [2]: protected mice from weight loss and death | weight loss [2]: protected mice from weight loss
